Reference: patent publication US20260167629A1, “NOVEL INDAZOLE DERIVATIVE OR PHARMACEUTICALLY ACCEPTABLE SALT THEREOF, AND USE THEREOF” (KOREA UNIVERSITY RESEARCH AND BUSINESS FOUNDATION, priority 2022, published 2026)
Values belong to the compound of their own block, whether it stands above or below them.

Key:
MDA-MB-231 cell line [1] = experiment: MTS cell viability assay in MDA-MB-231 cell line; type: cell-based; details: Homo sapiens, MDA-MB-231, 72 hours
Description: A HER2 positive breast cancer (HER2+BC) cell line, JIMT-1 (cell seeding numbers: 1.0 (JIMT)×10^4 cells/wells (confluency≤30%)) and a triple-negative breast cancer (TNBC) cell line, MDA-MB-231 (cell seeding numbers: 1.0 (M231)×10^4 cells/wells (confluency≤30%) were used in the experiment.
The above cell lines were cultured in Dulbecco's Modified Eagle's Medium (DMEM) or Eagle's minimum Essential Medium (MEM) each containing 10% fetal bovine serum (FBS), streptomycin-penicillin (100 U/ml), and Fungizone (0.625 μg/ml), respectively under 5% CO2, 37° C. environment.
The JIMT-1 cell line and MDA-MB-231 cell line were treated with the indazole derivatives (formulas 1-1 to 1-53) of the present disclosure at a concentration of 10 μM each for 72 hours, and then cell viability was measured using the MTS assay technique. The control group was treated with DMSO as an untreated group (0 μM) of the indazole derivative of the present disclosure.
(§1) Specifically, cells were attached to 96 well plates for 24 hours, and then treated with the indazole derivatives for 72 hours. Thereafter, the cells were chromogenized with MTS for 4 hours, and the absorbance was measured at 490 nm using a Spectramax Plus384 microplate analyzer. The significance between the control group and the experimental group was verified using an unpaired Students t-test (*p<0.01; DMSO control vs indazole series).
HER2-positive breast cancer cell lines, BT474 (cell seeding numbers: 2.0 (JIMT)×10^4 cells/wells (confluency≤30%)) sensitive to trastuzumab, and JIMT-1 (cell seeding numbers: 1.0 (JIMT)×10^4 cells/wells (confluency≤30%)) resistant to trastuzumab, and a triple-negative breast cancer cell line, MDA-MB-231 (cell seeding numbers: 1.0 (M231)×10^4 cells/wells (confluency≤30%)) were used.
The BT474, JIMT-1, and MDA-MB-231 cell lines were treated with compound 18c (formula 1-16) and compound 11k (formula 1-7) at concentrations of 0 (DMSO), 0.1, 0.5, 1, 5, 10, and 20 μM, respectively, for 72 hours, and then cell viability was measured using the MTS assay technique as explained by the description of Experimental Example 1. The cell viability experiment was performed independently three times, and the significance was verified by a One-Way Anova, Bonferroni post-hoc test (*p<0.01; DMSO control vs. compound 18c or compound 11k).
In addition, the JIMT-1 and MDA-MB-231 cell lines were treated with compound 11m (formula 1-9), 11n (formula 1-10) and compound 12k (formula 1-13) at concentrations of 0 (DMSO), 0.1, 1, 5, 10, and 20 μM, respectively, for 72 hours, and then cell viability was measured.
(§2) Meanwhile, triple-negative breast cancer cell lines MDA-MB-231 and BT549, and a mouse breast cancer cell line 4T1 were treated with compound 38 (formula 1-30) at concentrations of 0 (DMSO), 0.1, 0.5, 1, 2, 5, 10, and 20 μM for 72 hours, and then cell viability was measured.
The indazole derivative of the present disclosure was compared with the benzopyran derivative of the related art (KR 10-2304532) in terms of cell viability of the BT474, JIMT-1, and MDA-MB-231 cell lines (Table 1). In this case, the cell lines were treated with the benzopyran derivative at a concentration of 10 μM for 72 hours and the cell lines were treated with the indazole derivative at a concentration of 10 μM for 72 hours, and then the cell viability was measured.

JIMT-1 cell line = experiment: MTS cell viability assay in JIMT-1 cell line; type: cell-based; details: Homo sapiens, JIMT-1, 72 hours
Description: The control group was treated with DMSO as an untreated group (0 μM) of the indazole derivative of the present disclosure.
Specifically, cells were attached to 96 well plates for 24 hours, and then treated with the indazole derivatives for 72 hours. Thereafter, the cells were chromogenized with MTS for 4 hours, and the absorbance was measured at 490 nm using a Spectramax Plus384 microplate analyzer.
HER2 positive breast cancer (HER2+BC) cell lines, BT474 (cell seeding numbers: 2.4 (BT474)×10^4 cells/wells (confluency≥50%)) sensitive to trastuzumab and JIMT-1 (cell seeding numbers: 1.0 (JIMT-1)×10^4 cells/wells (confluency>30%)) resistant to trastuzumab were used in the experiment.
In this case, the cell lines were treated with the benzopyran derivative at a concentration of 10 μM for 72 hours and the cell lines were treated with the indazole derivative at a concentration of 10 μM for 72 hours, and then the cell viability was measured.

BT549 cell line [2] = experiment: MTS cell viability assay in BT549 cell line; type: cell-based; details: Homo sapiens, BT-549; BT549, 72 hours
Description: as §1, §2

BT549 cell line [3] = experiment: Annexin V/PI staining, type of cell death, BT549; type: cell-based
Description: (§3) Meanwhile, triple-negative breast cancer cell lines, MDA-MB-231 and BT549 were treated with compound 38 (formula 1-30), and then the type of cell death was determined by Annexin V/PI staining.

BT549 cell line [4] = experiment: Cell morphology by phase contrast microscopy, BT549; type: cell-based; details: BT549, 5 and 10 μM, 72 hours
Description: (§4) MDA-MB-231 and BT549 cell lines were treated with compound 38 (formula 1-30) at concentrations of 0 (DMSO), 5, and 10 μM for 72 hours. Then, the drug-induced cytotoxicity was assessed by observing changes in cell morphology using phase contrast microscopy. The photographs were taken at a magnification of ×200 using phase contrast microscopy.

MDA-MB-231 cell line [5] = experiment: Annexin V/PI staining, type of cell death, MDA-MB-231; type: cell-based; details: MDA-MB-231, Annexin V/PI staining
Description: as §3

MDA-MB-231 cell line [6] = experiment: Cell morphology by phase contrast microscopy, MDA-MB-231; type: cell-based; details: MDA-MB-231, 5 and 10 μM, 72 hours
Description: as §4

[7] = tested on: mouse breast cancer cell line 4T1; experiment: MTS cell viability assay in 4T1 cell line; type: cell-based; details: 4T1, 72 hours
Description: as §1, §2

[8] = Toxicity in JIMT-1 xenograft mice, combination with paclitaxel (body weight, AST, ALT, BUN); type: in vivo, Balb/c nude mice; details: combination study
[9] = tested on: JIMT-1 breast cancer cell line xenograft; experiment: Tumor growth in JIMT-1 xenograft mouse model, combination with paclitaxel; type: in vivo, Balb/c nude mice
Description: This experiment was performed in an in vivo environment using a xenograft mouse model transplanted with the JIMT-1 breast cancer cell line.
6-week-old mice (Balb/c nude mice) were purchased and raised in an environment where they could freely access food and water. The mice were acclimated for more than 7 days, and then were transplanted with tumor cells. Tumor cells were injected subcutaneously into the mammary gland tissue of JIMT-1 breast cancer cells at a density of 3×10^6 cells/mL per individual, and when the tumor reached a size of 50 to 100 mm^3, the indazole derivative of the present disclosure was administered intraperitoneally, and the tumor growth was measured.

IC50 (MDA-MB-231 cell line [1]): 3.65 µM
Compound: COc1c(C(=O)Nc2ccc3c(C)nn(CCCN4CCN(C)CC4)c3c2)ccc2c1C=CC(C)(C)O2 [compound 11n, 5-methoxy-2,2-dimethyl-N-(3-methyl-1-(3-(4-methylpiperazin-1-yl)propyl)-1H-indazol-6-yl)-2H-chromene-6-carboxamide]
IC50 (JIMT-1 cell line): 3.28 µM

IC50 (MDA-MB-231 cell line [1]): 2.05 µM
Compound: COc1c(C(=O)Nc2ccc3cnn(CCC4CCN(C)CC4)c3c2)ccc2c1C=CC(C)(C)O2 [compound 12k, 5-methoxy-2,2-dimethyl-N-(1-(2-(1-methylpiperidin-4-yl)ethyl)-1H-indazol-6-yl)-2H-chromene-6-carboxamide]
IC50 (JIMT-1 cell line): 5.56 µM

IC50 (BT549 cell line [2]): 4.84 µM
IC50 (MDA-MB-231 cell line [1]): 3.67 µM
IC50 [7]: 1.21 µM
Compound: Cc1nn(CCC2CCN(C)CC2)c2cc(NC(=O)c3ccc4c(c3Cl)C=CC(C)(C)O4)ccc12 [compound 38, 5-chloro-2,2-dimethyl-N-(3-methyl-1-(2-(1-methylpiperidin-4-yl)ethyl)-1H-indazol-6-yl)-2H-chromene-6-carboxamide]
type of cell death (apoptosis) (BT549 cell line [3]): early and late apoptosis of cancer cells was induced
changes in cell morphology (cytotoxicity) (BT549 cell line [4]): morphological changes in which the cytoplasm shrank
type of cell death (apoptosis) (MDA-MB-231 cell line [5]): early and late apoptosis of cancer cells was induced
changes in cell morphology (cytotoxicity) (MDA-MB-231 cell line [6]): morphological changes in which the cytoplasm shrank

Compound: CC(=O)O[C@H]1C(=O)[C@@]2(C)[C@H]([C@H](OC(=O)c3ccccc3)[C@]3(O)C[C@H](OC(=O)[C@H](O)[C@@H](NC(=O)c4ccccc4)c4ccccc4)C(C)=C1C3(C)C)[C@]1(OC(C)=O)CO[C@@H]1C[C@@H]2O [paclitaxel, reference compound]
AST and ALT levels, BUN assay ([8]; blood of the mouse model): levels similar to those of the control group
body weight [8]: remained unchanged
tumor weight ([9]; measured after tumor resection): 488.333 mg
tumor volume ([9]; measured at 40 days after drug administration): 813.356 mm^3
